Data reported in the supplement of paper PMC10627819.

Tests used:
Assay in all cases: fitness (endpoint OD595 vs no drug) (fraction); higher = more growth
S. aureus Newman = test system: S. aureus Newman
How it was run: (§1)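 Fitness is computed from the optical density at which cultures reach stationary phase, divided by the robust mean of no-drug control wells. Any value above 1 is set to 1. Cultures started at OD595 0.01 in 384-well plates with TSB, LB Lennox or CY at 37 °C, and OD595 was read every 30 min for 14 h against a first-reading background.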

S. aureus DSM 20231 = test system: S. aureus DSM 20231
How it was run: as §1

B. subtilis 168 = test system: B. subtilis 168
How it was run: as §1
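Note: OD595 on entry to stationary phase over no-drug wells; at most 1.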

N[C@@H]1CONC1=O [Cycloserine D] + CCN(CC)CCOC(=O)c1ccc(N)cc1 [Procaine]
fitness
Details | first compound 0.125 µg/mL | first compound 0.25 µg/mL | first compound 0.375 µg/mL | first compound 0.5 µg/mL | first compound 0.75 µg/mL | first compound 1.5 µg/mL
B. subtilis 168, partner 85.5 µg/mL | 0.95 | 0.899 | – | 0.921 | – | –
B. subtilis 168, partner 171 µg/mL | 0.908 | 0.851 | – | 0.894 | – | –
B. subtilis 168, partner 342 µg/mL | 0.925 | 0.874 | – | 0.907 | – | –
S. aureus DSM 20231, partner 85.5 µg/mL | – | – | 0.979 | – | 0.982 | 0.981
S. aureus DSM 20231, partner 171 µg/mL | – | – | 0.996 | – | 0.998 | ≥ 1
S. aureus DSM 20231, partner 342 µg/mL | – | – | ≥ 1 | – | 0.966 | ≥ 1
S. aureus Newman, partner 85.5 µg/mL | – | – | ≥ 1 | – | ≥ 1 | ≥ 1
S. aureus Newman, partner 171 µg/mL | – | – | 0.993 | – | ≥ 1 | ≥ 1
S. aureus Newman, partner 342 µg/mL | – | – | ≥ 1 | – | ≥ 1 | ≥ 1

N[C@@H]1CONC1=O [Cycloserine D] + CN1C2=CC=CC=C2N=C3C1=CC=CC3=O [Pyocyanin]
fitness
Details | first compound 0.125 µg/mL | first compound 0.25 µg/mL | first compound 0.375 µg/mL | first compound 0.5 µg/mL | first compound 0.75 µg/mL | first compound 1.5 µg/mL
B. subtilis 168, partner 1.25 µg/mL | 0.878 | 0.871 | – | 0.877 | – | –
B. subtilis 168, partner 2.5 µg/mL | 0.833 | 0.781 | – | 0.828 | – | –
B. subtilis 168, partner 5 µg/mL | 0.697 | 0.667 | – | 0.623 | – | –
S. aureus DSM 20231, partner 1.25 µg/mL | – | – | 0.983 | – | 0.985 | 0.962
S. aureus DSM 20231, partner 2.5 µg/mL | – | – | 0.884 | – | 0.875 | 0.865
S. aureus DSM 20231, partner 5 µg/mL | – | – | 0.826 | – | 0.855 | 0.777
S. aureus Newman, partner 1.25 µg/mL | – | – | 0.85 | – | 0.856 | 0.868
S. aureus Newman, partner 2.5 µg/mL | – | – | 0.8 | – | 0.764 | 0.826
S. aureus Newman, partner 5 µg/mL | – | – | 0.457 | – | 0.378 | 0.42

N[C@@H]1CONC1=O [Cycloserine D] + CN(N=O)C(=O)N[C@@H](C=O)[C@@H](O)[C@H](O)[C@H](O)CO [Streptozotocin]
fitness
Details | first compound 0.125 µg/mL | first compound 0.25 µg/mL | first compound 0.375 µg/mL | first compound 0.5 µg/mL | first compound 0.75 µg/mL | first compound 1.5 µg/mL
B. subtilis 168, partner 0.15 µg/mL | 0.991 | 0.979 | – | 0.975 | – | –
B. subtilis 168, partner 0.3 µg/mL | 0.963 | 0.98 | – | 0.931 | – | –
B. subtilis 168, partner 0.6 µg/mL | 0.984 | 0.988 | – | 0.958 | – | –
S. aureus DSM 20231, partner 0.15 µg/mL | – | – | 0.822 | – | 0.823 | 0.788
S. aureus DSM 20231, partner 0.3 µg/mL | – | – | 0.867 | – | 0.846 | 0.806
S. aureus DSM 20231, partner 0.6 µg/mL | – | – | 0.609 | – | 0.649 | 0.655
S. aureus Newman, partner 0.15 µg/mL | – | – | 0.833 | – | 0.762 | 0.741
S. aureus Newman, partner 0.3 µg/mL | – | – | 0.665 | – | 0.674 | 0.674
S. aureus Newman, partner 0.6 µg/mL | – | – | 0.607 | – | 0.512 | 0.584

N[C@@H]1CONC1=O [Cycloserine D] + CN[C@@H]1[C@H](O)[C@H](NC)[C@H]2O[C@@]3(O)C(=O)C[C@@H](C)O[C@H]3O[C@@H]2[C@H]1O [Spectinomycin]
fitness
Details | first compound 0.125 µg/mL | first compound 0.25 µg/mL | first compound 0.375 µg/mL | first compound 0.5 µg/mL | first compound 0.75 µg/mL | first compound 1.5 µg/mL
B. subtilis 168, partner 2 µg/mL | ≥ 1 | 0.985 | – | 0.992 | – | –
B. subtilis 168, partner 4 µg/mL | 0.947 | 0.934 | – | 0.957 | – | –
B. subtilis 168, partner 8 µg/mL | 0.906 | 0.924 | – | 0.879 | – | –
S. aureus DSM 20231, partner 4 µg/mL | – | – | 0.977 | – | 0.971 | 0.969
S. aureus DSM 20231, partner 8 µg/mL | – | – | 0.944 | – | 0.981 | 0.932
S. aureus DSM 20231, partner 16 µg/mL | – | – | 0.842 | – | 0.877 | 0.882
S. aureus Newman, partner 4 µg/mL | – | – | 0.96 | – | 0.924 | 0.908
S. aureus Newman, partner 8 µg/mL | – | – | ≥ 1 | – | 0.94 | 0.917
S. aureus Newman, partner 16 µg/mL | – | – | 0.941 | – | 0.894 | 0.875

fitness, one replicate
Details | first compound 0.375 µg/mL | first compound 0.75 µg/mL | first compound 1.5 µg/mL
S. aureus DSM 20231, partner 32 µg/mL | 0.726 | 0.786 | 0.736
S. aureus DSM 20231, partner 64 µg/mL | 0.0858 | 0.0864 | 0.0563
S. aureus Newman, partner 32 µg/mL | 0.575 | 0.596 | 0.501
S. aureus Newman, partner 64 µg/mL | 0.0802 | 0.0265 | 0.0316

N[C@@H]1CONC1=O [Cycloserine D] + CN[C@H](CC(C)C)C(=O)N[C@H]1C(=O)N[C@@H](CC(N)=O)C(=O)N[C@H]2C(=O)N[C@H]3C(=O)N[C@H](C(=O)N[C@H](C(=O)O)c4cc(O)cc(O)c4-c4cc3ccc4O)[C@H](O)c3ccc(c(Cl)c3)Oc3cc2cc(c3O[C@@H]2O[C@H](CO)[C@@H](O)[C@H](O)[C@H]2O[C@H]2C[C@](C)(N)[C@H](O)[C@H](C)O2)Oc2ccc(cc2Cl)[C@H]1O [Vancomycin]
fitness
Details | first compound 0.375 µg/mL | first compound 0.75 µg/mL | first compound 1.5 µg/mL
S. aureus DSM 20231, partner 0.1875 µg/mL | ≥ 1 | 0.973 | ≥ 1
S. aureus DSM 20231, partner 0.375 µg/mL | ≥ 1 | ≥ 1 | 0.957
S. aureus DSM 20231, partner 0.75 µg/mL | ≥ 1 | ≥ 1 | ≥ 1
S. aureus Newman, partner 0.1875 µg/mL | ≥ 1 | 0.995 | 0.983
S. aureus Newman, partner 0.375 µg/mL | ≥ 1 | ≥ 1 | ≥ 1
S. aureus Newman, partner 0.75 µg/mL | ≥ 1 | 0.975 | 0.967

N[C@@H]1CONC1=O [Cycloserine D] + CO/N=C(\C(=O)N[C@@H]1C(=O)N2C(C(=O)[O-])=C(C[N+]3(C)CCCC3)CS[C@H]12)c1csc(N)n1 [Cefepime]
fitness
Details | first compound 0.375 µg/mL | first compound 0.75 µg/mL | first compound 1.5 µg/mL
S. aureus DSM 20231, partner 0.125 µg/mL | 0.907 | 0.936 | 0.99
S. aureus DSM 20231, partner 0.25 µg/mL | 0.92 | 0.97 | 0.952
S. aureus DSM 20231, partner 0.5 µg/mL | 0.853 | 0.884 | 0.862
S. aureus Newman, partner 0.125 µg/mL | 0.894 | 0.925 | 0.89
S. aureus Newman, partner 0.25 µg/mL | 0.808 | 0.854 | 0.852
S. aureus Newman, partner 0.5 µg/mL | 0.782 | 0.801 | 0.779

N[C@@H]1CONC1=O [Cycloserine D] + CO[C@@]12[C@H](COC(N)=O)C3=C(C(=O)C(C)=C(N)C3=O)N1C[C@@H]1N[C@@H]12 [Mitomycin C]
fitness
Details | first compound 0.375 µg/mL | first compound 0.75 µg/mL | first compound 1.5 µg/mL
S. aureus DSM 20231, partner 0.0156 µg/mL | 0.746 | 0.739 | 0.71
S. aureus DSM 20231, partner 0.0312 µg/mL | 0.716 | 0.716 | 0.711
S. aureus DSM 20231, partner 0.0625 µg/mL | 0.528 | 0.542 | 0.513
S. aureus Newman, partner 0.0156 µg/mL | 0.682 | 0.71 | 0.732
S. aureus Newman, partner 0.0312 µg/mL | 0.656 | 0.651 | 0.693
S. aureus Newman, partner 0.0625 µg/mL | 0.567 | 0.5 | 0.555
